Assays:
[1] = Aqueous solubility (equilibration in de-ionised water, HPLC); type: physicochemical; conditions: for Form retention of solids after solubility equilibration (XRPD): 24 hours in de-ionised water, solids dried at 50° C., re-analysed by XRPD; for solubility at 24 h: de-ionised water, water, thermodynamic from solid, 25° C.
Method: […] Solids were isolated by filtration to deliver clear liquors that were analyzed for API content by HPLC vs a known standard of free base (typical dilution of 50× using deionized water for salt candidates to deliver a working concentration in line with the standard at 0.5 mg/ml). The solids were dried at 50° C. and re-analysed by XRPD to confirm form retention—both mesylate and citrate retain form.

[2] = Solid form stability under extremes of humidity (XRPD post DVS/GVS); type: physicochemical; conditions: 0% RH and 90% RH, XRPD vs input
Text: FIG. 1: XRPD patterns of citrate salt (Example 1), Ex-DVS examination at 0% RH, (top panel), 90% RH, (middle panel) and input (bottom panel).
FIG. 3: XRPD data for mesylate salt (Example 2) exposed to extremes of humidity post GVS cycle: input (bottom panel) output 0% (top panel) output 90% (middle panel).
X-Ray Powder Diffraction (XRPD)
X-Ray Powder Diffraction patterns were collected on a PANalytical diffractometer using Cu Kα radiation (45 kV, 40 mA), θ−θ goniometer, focusing mirror, divergence slit (½″), soller slits at both incident and divergent beam (4 mm) and a PIXcel detector. The software used for data collection was X'Pert Data Collector, version 2.2f and the data was presented using X'Pert Data Viewer, version 1.2d.
XRPD patterns were acquired under ambient conditions via a transmission foil sample stage (polyimide—Kapton, 12.7 μm thickness film) under ambient conditions using a PANalytical X'Pert PRO. The data collection range was 2.994-35°2θ with a continuous scan speed of 0.202004°s^−1.

Form retention of solids after solubility equilibration (XRPD) [1]	solubility at 24 h [1] [mg/mL]	Crystalline form stability / hydrate formation under different extremes of humidity (XRPD) [2]	SMILES
retain form	22	no tendency to form hydrates	Cc1cc(-c2ccc(C(F)(F)F)cc2)nc([C@H]2CC[C@@]3(CCN(C)C3=O)N2)n1.O=C(O)CC(O)(CC(=O)O)C(=O)O [Example 1, (2R,5S)-7-Methyl-2-[4-methyl-6-[4-(trifluoromethyl)-phenyl]pyrimidin-2-yl]-1,7-diazaspiro[4.4]nonan-6-one citric acid (citrate) salt]
retain form	65	no tendency to form hydrates	CS(=O)(=O)O.Cc1cc(-c2ccc(C(F)(F)F)cc2)nc([C@H]2CC[C@@]3(CCN(C)C3=O)N2)n1 [Example 2, (2R,5S)-7-Methyl-2-[4-methyl-6-[4-(trifluoromethyl)-phenyl]pyrimidin-2-yl]-1,7-diazaspiro[4.4]nonan-6-one methanesulfonic acid (mesylate) salt]
